Test results: patent US10039761B2, “Co-crystals and pharmaceutical compositions comprising the same” (Vertex Pharmaceuticals Incorporated, priority 2013, dated 2018)
pIC50, pKi: −log10 of the molar value. Like-named read-outs stand apart in the source and are kept apart here. Values belong to the compound of their own block, whether it stands above or below them.

Assays:
[1] = system: ESO26 (GEJ) cancer cell line; assay: Combination with genotoxic agents, viability (Mixtures analysis); type: cell-based; details: single agent IC50 on which the mixtures were based
Experimental: (§1) The cell-based experiments and assays were performed with either molecule but not always with both. Compounds (1) and (2) were generally very similar in those assays and experiments. Analysis of the combination experiments was performed using two methods: the Bliss Additivity model and the Mixtures Blend method to determine the degree of synergy, additivity, or antagonism. In the Bliss method, a matrix of Bliss scores was generated for each cell line and treatment, and a sum of the Bliss values over the range of combination concentrations tested was calculated. […] Larger average Bliss values indicate greater confidence in reporting synergy, and smaller scores indicate greater confidence in reporting antagonism. In the Mixtures Blend method combinants were added in a range of optimal ratios using design of experiment (DOE) software (DX-8 from STAT-EASE); the cells were irradiated with 2 Gy as required. Synergy was determined using statistical analysis of the data (ANOVA) to indicate linear (additivity) or statistically significant (p<0.1) non-linear (antagonism or synergy) mixes of the combinants.

HCC-1395 = assay: Doxorubicin combination in triple negative breast cancer cells; type: cell-based; details: Homo sapiens, HCC1395, read-out: Doxorubicin IC50 (μM); plating density 5000; BRCA mutant
Experimental: as §1

HCC-1599 = assay: as above; type: cell-based; details: Homo sapiens, HCC1599, read-out: Doxorubicin IC50 (μM); plating density unknown; BRCA mutant
Experimental: as §1

HCC-1937 = assay: as above; type: cell-based; details: Homo sapiens, BRCA mutant
Experimental: as §1

MDA-MB-436 = assay: as above; type: cell-based; details: Homo sapiens, BRCA mutant
Experimental: as §1

MDA-MB-468 = assay: as above; type: cell-based; details: Homo sapiens, BRCA wild-type
Experimental: as §1

DNA-PK = DNA-PK (Homo sapiens, UniProt P78527); assay: DNA-PK kinase inhibition radiometric assay; type: biochemical; details: 100 μM ATP; competitive tight-binding inhibition fit
Experimental: Accordingly, compounds of the invention were dissolved in DMSO to make 10 mM initial stock solutions. Serial dilutions in DMSO were then made to obtain the final solutions for the assay.

[2] = Two stage dissolution (FaSSGF then FaSSIF); type: physicochemical; details: 37° C., compared with free form
Experimental: Two stage dissolution experiments were performed at least in duplicate. Fasted state simulated gastric fluid (FaSSGF) was equilibrated for 30 minutes under stirring to 37° C. in a 100 ml clear class vial using a water bath consisting of a temperature controlled jacketed vessel. The compound 1:adipic acid co-crystal and compound 2:adipic acid co-crystal was added and the suspension was stirred at about 130 rpm and 37° C., respectively. Aliquots (0.5 ml) were taken at 5, 15, 30, and 60 minutes. Solids were separated by filter centrifugation using centrifuge filter units with a 0.45 μm membrane and spinning at 5000 rpm for 5 minutes on an Eppendorff Model 5418 centrifuge. The pH of the dissolution samples was measured after sampling at 15 and 60 minute time points. The supernatants of the filtered samples were 10 fold diluted of with diluent for HPLC Analysis. At the 65 minute timepoint fasted state simulated intestinal fluid FaSSIF equilibrated at 37° C. was added to the suspension and the suspension was continued to stir at 130 rpm. Aliquots (0.5 ml) were taken at 75, 90, 120 and 180 minute timepoints. Solids were separated by filter centrifugation using centrifuge filter units with a 0.45 μm membrane and spinning at 5000 rpm for 5 minutes on an Eppendorff Model 5418 centrifuge. The pH of the dissolution samples was measured after sampling at 75, 90 and 180 minute time points. […]

SMILES: COc1cc([C@@H]2c3cc4c(cc3[C@@H](O[C@@H]3O[C@@H]5CO[C@@H](C)O[C@H]5[C@H](O)[C@H]3O)[C@H]3COC(=O)[C@H]23)OCO4)cc(OC)c1O [etoposide]
pIC50 [1]: 6.22

IC50 (HCC-1395): 0.5 µM | IC50 (HCC-1599): 0.2 µM | IC50 (HCC-1937; HCC1937, read-out: Doxorubicin IC50 (μM), plating density 5000): 0.2 µM | IC50 (HCC-1937; HCC1937, read-out: Doxorubicin IC50 (μM), plating density 20000): 0.6 µM | IC50 (MDA-MB-436; MDA-MB-436, read-out: Doxorubicin IC50 (μM), plating density 5000): 0.7 µM | IC50 (MDA-MB-436; MDA-MB-436, read-out: Doxorubicin IC50 (μM), plating density 20000): 0.3 µM | IC50 (MDA-MB-468; MDA-MB-468, read-out: Doxorubicin IC50 (μM), plating density 5000): 0.02 µM | IC50 (MDA-MB-468; MDA-MB-468, read-out: Doxorubicin IC50 (μM), plating density 20000): 0.04 µM
SMILES: COc1cccc2c1C(=O)c1c(O)c3c(c(O)c1C2=O)C[C@@](O)(C(=O)CO)C[C@@H]3O[C@H]1C[C@H](N)[C@H](O)[C@H](C)O1 [Doxorubicin, reference compound]

SMILES: O=c1[nH]cc(F)c(=O)[nH]1 [Compound 5-FU, fluorouracil]
pIC50 [1]: 4.70

pKi (DNA-PK): ~8.70
SMILES: [2H]c1nc(C)nc([2H])c1-c1cc(NC[C@@H](C)c2cccc3c(C(=O)NC)ccnc23)ncn1 [adipic acid co-crystal of Compound (2)]
two stage dissolution concentrations [2]: higher Compound 1 and Compound 2 concentrations than Compound 1 or Compound 2 free form

SMILES: N.N.[Cl][Pt][Cl] [cisplatin]
pIC50 [1]: 5.82

SMILES: CC(=O)O[C@H]1C(=O)[C@@]2(C)[C@H]([C@H](OC(=O)c3ccccc3)[C@]3(O)C[C@H](OC(=O)[C@H](O)[C@@H](NC(=O)c4ccccc4)c4ccccc4)C(C)=C1C3(C)C)[C@]1(OC(C)=O)CO[C@@H]1C[C@@H]2O [paclitaxel]
pIC50 [1]: 8.52

SMILES: N.N.O=C([O-])C1(C(=O)[O-])CCC1.[Pt+2] [carboplatin]
pIC50 [1]: 4.30
